Experimental data from patent EP2567943A1, “TITANIUM COAGULANT FOR NATURAL AND WASTE WATER PURIFICATION AND DISINFECTION AND METHOD FOR UTILIZING THEREOF” (Sittec Closed Joint Stock Company (Sittec CJSC), priority 2007, dated 2009).

Legend:
[1] = acute toxicity (hazard indices); settings: in vivo
Experimental: (§1) Testing the safe method for producing and utilizing the claimed titanium coagulant (absence of mutagenous impact; sensibilizing, allergenic, carcinogenic, gonadotoxic and other action) was carried out on the base of the State organ SRI of human ecology and environmental hygiene named after A.N. Sysin of the Russian Academy of Medical Sciences (RAMS).
(§2) Particularly, derivatives of aluminium oxychloride (AOC) and aluminium sulfate are monitored in accordance with the aluminium content in potable water. While testing the new coagulant, the same principles for evaluating the titanium coagulant safety as the safety evaluation of coagulants based on aluminium were applied. […]

[2] = hygienic hazard indices in water
Experimental: as §1, §2
One can see from the Table 22 that the method for producing the titanium coagulant and the coagulant generally are safe by the main hygienic indices, and control of the titanium coagulant content in purified water should be performed in accordance with the titanium and aluminium content therein pursuant to the MAC of 0.1 mg/L and 0.2 mg/L, respectively, established for them.

Row | Compound | LD50 [1] [mg/kg] | L.conc. ([2]; muddiness) | Min.possi bl [2] [mg/kg] | L.conc. ([2]; retardation) | L.conc. ([2]; taint) | MAC [2] [mg/L]
1 | [Al] [Aluminium] | 180 to 1360 | 0.2 (muddiness) mg/L | – | – | – | –
2 | Titanium | 150 | – | 1.0 | 0.1 (retardation) mg/L | 4.5 (taint) mg/L | –
3 | aluminium oxychloride [AOC, reference compound] | – | 1.45 (muddiness) mg/L | 1.0 | 1.0 (retardation) mg/L | – | 1.5
